Columns and labels:
Assay in all cases: Test F preemergence test
bermudagrass = assay type: in vivo, Cynodon dactylon; settings: scale 0 to 100
Method in brief: (§1)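 Greenhouse screen: test chemical in surfactant-containing non-phytotoxic solvent applied preemergence to sown seeds or postemergence to sugarcane plants; after 14 to 21 days each species scored visually versus controls.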

Surinam grass = assay type: in vivo, Brachiaria decumbens; settings: scale 0 to 100
Method in brief: as §1

large crabgrass = assay type: in vivo, Digitaria sanguinalis; settings: scale 0 to 100
Method in brief: as §1

goosegrass = assay type: in vivo, Eleusine indica; settings: scale 0 to 100
Method in brief: as §1

johnsongrass = assay type: in vivo, Sorghum halepense; settings: scale 0 to 100; for Plant response rating, Johnsongrass: Preemergence
Method in brief: as §1

kochia = assay type: in vivo, Kochia scoparia; settings: scale 0 to 100
Method in brief: as §1

common ragweed = assay type: in vivo, Ambrosia elation; settings: scale 0 to 100
Method in brief: as §1

mustard = assay type: in vivo, Brassica nigra; settings: scale 0 to 100
Method in brief: as §1

guineagrass = assay type: in vivo, Panicum maximum; settings: scale 0 to 100
Method in brief: as §1

dallisgrass = assay type: in vivo, Paspalum dilatatum; settings: scale 0 to 100
Method in brief: as §1

barnyardgrass = assay type: in vivo, Echinochloa crus-galli
Method in brief: as §1

prickly sida = assay type: in vivo, Sida spinosa; settings: scale 0 to 100
Method in brief: as §1

Italian ryegrass = assay type: in vivo, Lolium multiflorum; settings: scale 0 to 100
Method in brief: as §1

common purslane = assay type: in vivo, Portulaca oleracea; settings: scale 0 to 100
Method in brief: as §1

broadleaf signalgrass = assay type: in vivo, Brachiaria platyphylla; settings: scale 0 to 100
Method in brief: as §1

common groundsel = assay type: in vivo, Senecio vulgaris; settings: scale 0 to 100
Method in brief: as §1

Virginia dayflower = assay type: in vivo, Commelina virginica; settings: scale 0 to 100
From the text: Seeds of plant species selected from bermudagrass (Cynodon dactylon), Surinam grass (Brachiaria decumbens), large crabgrass (Digitaria sanguinalis), green foxtail (Setaria viridis), goosegrass (Eleusine indica), johnsongrass (Sorghum halepense), kochia (Kochia scoparia), pitted morningglory (Ipomoea lacunosa), purple nutsedge (Cyperus rotundus), common ragweed (Ambrosia elation), mustard (Brassica nigra), guineagrass (Panicum maximum), […] (Paspalum dilatatum), barnyardgrass (Echinochloa crus-galli), southern sandbur (Cenchrus echinatus), common sowthistle (Sonchus oleraceous), prickly […] spinosa), Italian ryegrass (Lolium multiflorum), common purslane (Portulaca oleracea), broadleaf signalgrass (Brachiaria platyphylla), common groundsel (Senecio vulgaris), common chickweed (Stellaria media), Virginia dayflower (Commelina virginica), annual bluegrass (Poa annua), naked crabgrass (Digitaria nuda), […] cochinchinensis), quackgrass (Elytrigia repens), Canada horseweed (Conyza canadensis), field bindweed (Convolvulus arvensis), […] (Bidens bipinnata), common mallow (Malva sylvestris), Russian thistle (Salsola kali), and sugarcane (Saccharum officinarum) were planted and treated preemergence with test chemicals formulated in a non-phytotoxic solvent mixture which included a surfactant. At a different time, sugarcane was treated with postemergence applications of some of the test chemicals formulated in the same manner. Plants were approximately 3- to 4-leaf stage for the postemergence treatments. Treated plants and controls were maintained in a greenhouse for 14 to 21 days, after which time all species were compared to controls and visually evaluated. […] A dash (-) response means no test result.

naked crabgrass = assay type: in vivo, Digitaria nuda; settings: scale 0 to 100
Method in brief: as §1

itchgrass = assay type: in vivo, Rottboellia cochinchinensis; settings: scale 0 to 100; for Plant response rating, Itchgrass: Preemergence
Method in brief: as §1

quackgrass = assay type: in vivo, Elytrigia repens; settings: scale 0 to 100
Method in brief: as §1

Q: `CC(Oc1c(CS(=O)(=O)c2cccc[n+]2[O-])c(C(F)(F)F)nn1C)C(F)(F)F` (centres unmarked) [Compound 82] was tested. Which “Plant response rating, Bermudagrass” value (bermudagrass; 16 g ai/ha, preemergence) did it give?
A: 0

Q: And the “Bermudagrass plant response rating” value (bermudagrass; 125 g ai/ha, preemergence)?
A: 100

Q: And the “Plant response rating, Bermudagrass” value (bermudagrass; Preemergence, 62 g ai/ha)?
A: 90

Q: What about the “Plant response rating, Bermudagrass” value (bermudagrass; Preemergence, 31 g ai/ha) of the same compound?
A: 80

Q: What about the “Plant response rating, Surinam Grass” value (Surinam grass; 16 g ai/ha, preemergence) of the same compound?
A: 0

Q: What about the “Surinam Grass plant response rating” value (Surinam grass; 125 g ai/ha, preemergence) of the same compound?
A: 100

Q: And the “Plant response rating, Surinam Grass” value (Surinam grass; Preemergence, 62 g ai/ha)?
A: 90

Q: And the “Plant response rating, Surinam Grass” value (Surinam grass; Preemergence, 31 g ai/ha)?
A: 30

Q: And the “Plant response rating, Crabgrass, Large” value (large crabgrass; 16 g ai/ha, preemergence)?
A: 0

Q: And the “Crabgrass, Large plant response rating” value (large crabgrass; 125 g ai/ha, preemergence)?
A: 100

Q: What about the “Plant response rating, Crabgrass, Large” value (large crabgrass; Preemergence, 62 g ai/ha) of the same compound?
A: 90

Q: And the “Plant response rating, Crabgrass, Large” value (large crabgrass; Preemergence, 31 g ai/ha)?
A: 50

Q: What about the “Plant response rating, Goosegrass” value (goosegrass; 16 g ai/ha, preemergence) of the same compound?
A: 15

Q: And the “Goosegrass plant response rating” value (goosegrass; 125 g ai/ha, preemergence)?
A: 98

Q: And the “Plant response rating, Goosegrass” value (goosegrass; Preemergence, 62 g ai/ha)?
A: 98

Q: And the “Plant response rating, Goosegrass” value (goosegrass; Preemergence, 31 g ai/ha)?
A: 75

Q: What about the “Johnsongrass plant response rating” value (johnsongrass; 125 g ai/ha, preemergence) of the same compound?
A: 100

Q: What about the “Plant response rating, Johnsongrass” value (johnsongrass; 62 g ai/ha) of the same compound?
A: 100

Q: What about the “Plant response rating, Johnsongrass” value (johnsongrass; 31 g ai/ha) of the same compound?
A: 35

Q: What about the “Plant response rating, Kochia” value (kochia; 16 g ai/ha, preemergence) of the same compound?
A: 100

Q: And the “Kochia plant response rating” value (kochia; 125 g ai/ha, preemergence)?
A: 100

Q: What about the “Plant response rating, Kochia” value (kochia; Preemergence, 62 g ai/ha) of the same compound?
A: 100

Q: And the “Plant response rating, Kochia” value (kochia; Preemergence, 31 g ai/ha)?
A: 100

Q: What about the “Plant response rating, Ragweed” value (common ragweed; 16 g ai/ha, preemergence) of the same compound?
A: 0

Q: And the “Ragweed plant response rating” value (common ragweed; 125 g ai/ha, preemergence)?
A: 0

Q: And the “Plant response rating, Ragweed” value (common ragweed; Preemergence, 31 g ai/ha)?
A: 0

Q: And the “Plant response rating, Black Mustard” value (mustard; 16 g ai/ha, preemergence)?
A: 0

Q: And the “Black Mustard plant response rating” value (mustard; 125 g ai/ha, preemergence)?
A: 100

Q: And the “Plant response rating, Black Mustard” value (mustard; Preemergence, 62 g ai/ha)?
A: 50

Q: What about the “Plant response rating, Black Mustard” value (mustard; Preemergence, 31 g ai/ha) of the same compound?
A: 0

Q: What about the “Plant response rating, Guineagrass” value (guineagrass; 16 g ai/ha, preemergence) of the same compound?
A: 70

Q: What about the “Guineagrass plant response rating” value (guineagrass; 125 g ai/ha, preemergence) of the same compound?
A: 100

Q: And the “Plant response rating, Guineagrass” value (guineagrass; Preemergence, 62 g ai/ha)?
A: 95

Q: What about the “Plant response rating, Guineagrass” value (guineagrass; Preemergence, 31 g ai/ha) of the same compound?
A: 70

Q: And the “Plant response rating, Dallisgrass” value (dallisgrass; 16 g ai/ha, preemergence)?
A: 20

Q: And the “Dallisgrass plant response rating” value (dallisgrass; 125 g ai/ha, preemergence)?
A: 90

Q: What about the “Plant response rating, Dallisgrass” value (dallisgrass; Preemergence, 62 g ai/ha) of the same compound?
A: 40

Q: And the “Plant response rating, Dallisgrass” value (dallisgrass; Preemergence, 31 g ai/ha)?
A: 20

Q: And the “Plant response rating, Barnyardgrass” value (barnyardgrass; 16 g ai/ha, preemergence, scale 0 to 100 (0 no effect, 100 complete control))?
A: 50

Q: What about the “Barnyardgrass plant response rating” value (barnyardgrass; 125 g ai/ha, preemergence, scale 0 to 100) of the same compound?
A: 100

Q: What about the “Plant response rating, Barnyardgrass” value (barnyardgrass; Preemergence, 62 g ai/ha, scale 0 to 100) of the same compound?
A: 80

Q: What about the “Plant response rating, Barnyardgrass” value (barnyardgrass; Preemergence, 31 g ai/ha, scale 0 to 100) of the same compound?
A: 70

Q: What about the “Plant response rating, Prickly Sida” value (prickly sida; 16 g ai/ha, preemergence) of the same compound?
A: 0

Q: And the “Prickly Sida plant response rating” value (prickly sida; 125 g ai/ha, preemergence)?
A: 75

Q: And the “Plant response rating, Prickly Sida” value (prickly sida; Preemergence, 62 g ai/ha)?
A: 15

Q: And the “Plant response rating, Prickly Sida” value (prickly sida; Preemergence, 31 g ai/ha)?
A: 0

Q: And the “Plant response rating, Ryegrass, Italian” value (Italian ryegrass; 16 g ai/ha, preemergence)?
A: 35

Q: And the “Ryegrass, Italian plant response rating” value (Italian ryegrass; 125 g ai/ha, preemergence)?
A: 100

Q: And the “Plant response rating, Ryegrass, Italian” value (Italian ryegrass; Preemergence, 62 g ai/ha)?
A: 75

Q: And the “Plant response rating, Ryegrass, Italian” value (Italian ryegrass; Preemergence, 31 g ai/ha)?
A: 75

Q: And the “Plant response rating, Purslane” value (common purslane; 16 g ai/ha, preemergence)?
A: 0

Q: And the “Purslane plant response rating” value (common purslane; 125 g ai/ha, preemergence)?
A: 35

Q: What about the “Plant response rating, Purslane” value (common purslane; Preemergence, 62 g ai/ha) of the same compound?
A: 30

Q: And the “Plant response rating, Signalgrass” value (broadleaf signalgrass; 16 g ai/ha, preemergence)?
A: 50

Q: What about the “Signalgrass plant response rating” value (broadleaf signalgrass; 125 g ai/ha, preemergence) of the same compound?
A: 100

Q: And the “Plant response rating, Signalgrass” value (broadleaf signalgrass; Preemergence, 62 g ai/ha)?
A: 100

Q: And the “Plant response rating, Signalgrass” value (broadleaf signalgrass; Preemergence, 31 g ai/ha)?
A: 50

Q: What about the “Plant response rating, Groundsel” value (common groundsel; 16 g ai/ha, preemergence) of the same compound?
A: 0

Q: What about the “Groundsel plant response rating” value (common groundsel; 125 g ai/ha, preemergence) of the same compound?
A: 90

Q: And the “Plant response rating, Groundsel” value (common groundsel; Preemergence, 62 g ai/ha)?
A: 30

Q: What about the “Plant response rating, Groundsel” value (common groundsel; Preemergence, 31 g ai/ha) of the same compound?
A: 0

Q: And the “Dayflower plant response rating” value (Virginia dayflower; 125 g ai/ha, preemergence)?
A: 100

Q: What about the “Plant response rating, Dayflower” value (Virginia dayflower; Preemergence, 62 g ai/ha) of the same compound?
A: 90

Q: And the “Plant response rating, Crabgrass, Naked” value (naked crabgrass; 16 g ai/ha, preemergence)?
A: 35

Q: What about the “Crabgrass, Naked plant response rating” value (naked crabgrass; 125 g ai/ha, preemergence) of the same compound?
A: 100

Q: And the “Plant response rating, Crabgrass, Naked” value (naked crabgrass; Preemergence, 62 g ai/ha)?
A: 100

Q: And the “Plant response rating, Crabgrass, Naked” value (naked crabgrass; Preemergence, 31 g ai/ha)?
A: 98

Q: And the “Itchgrass plant response rating” value (itchgrass; 125 g ai/ha, preemergence)?
A: 70

Q: And the “Plant response rating, Itchgrass” value (itchgrass; 62 g ai/ha)?
A: 60

Q: What about the “Plant response rating, Itchgrass” value (itchgrass; 31 g ai/ha) of the same compound?
A: 0

Q: And the “Plant response rating, Quackgrass” value (quackgrass; 16 g ai/ha, preemergence)?
A: 70

Q: What about the “Quackgrass plant response rating” value (quackgrass; 125 g ai/ha, preemergence) of the same compound?
A: 100

Q: What about the “Plant response rating, Quackgrass” value (quackgrass; Preemergence, 62 g ai/ha) of the same compound?
A: 95

Q: And the “Plant response rating, Quackgrass” value (quackgrass; Preemergence, 31 g ai/ha)?
A: 70
